Measured values: patent publication US9765101B2, “Organo-arsenoxide compounds and use thereof” (NewSouth Innovations Pty Limited, priority 2006, dated 2017)
pIC50: −log10 of the molar value. Several values for one entry are separate records, joined by “and”; a condition that tells them apart may be missing. Identical values can stand only once.

Columns and labels:
[1] = tested on: HCT1116 cells (colorectal carcinoma); assay: HCT116 cell proliferation assay (MTT, 72 h); format: cell-based; conditions: HCT1116, human colorectal carcinoma; read-out: IC50 for proliferation arrest
Method: (§1) BAE cells were from Cell Applications, San Diego, Calif. and BxPC-3, HT1080, LLC, PANC-1, MCF-7, HCT116 and K562 cells were from ATCC, Bethesda, Md. NB4 and MDCK2 cells were from Shane Supple (Kanematsu Laboratories, Royal Prince Alfred Hospital, Sydney, Australia) and P. Borst (The Netherlands Cancer Institute, Amsterdam, The Netherlands). BAE, HT1080, Panc-1, MCF-7, HCT116, MDCK2 and LLC cells were cultured in DMEM. NB4, K562 and BxPC-3 cells were cultured in RPMI medium. The cells were supplemented with 10% foetal calf serum (FBS), 2 mM L-glutamine, and 1 U·mL-1 penicillin/streptomycin. Cell culture plasticware was from Techno Plastic Products (Trasadingen, Switzerland). All other cell culture reagents were from Gibco (Gaithersburg, Md.).
(§2) Adherent cells were allowed to adhere overnight.

MRP1/2 = assay: Effect of MRP1/2 inhibitors 4H10 and MK-571 on accumulation and anti-proliferative activity in BAE cells
Method: The data points and error bars are the mean±SD of quadruplicate determinations and is representative of two experiments. […] The MRP inhibitors were incubated for 30 min with the cells prior to incubation with (S)-Penicillamine-arsenoxide for 72 h. The data points and error bars are the mean±SD of triplicate determinations. *** is p<0.001, ** is p<0.01
BAE, NB4, K562, MDCK2, HT1080, LLC, HCT116, Panc-1, MCF-7 and BxPC-3 cells were seeded at a density of 1.5×10^3, 3×10^3, 4×10^3, 5×10^2, 2×10^3, 5×10^2, 5×10^2, 6×10^3, 6×10^3 and 1×10^4 cells per well, respectively, into 96-well plates. Adherent cells were allowed to adhere overnight. They were then cultured for 72 h in medium containing 10% fetal calf serum and (S)-Penicillamine-arsenoxide. Viable cells were determined by incubating cells with the tetrazolium salt MTT (Sigma, St. Louis, Mo.), which is metabolized by viable cells to form insoluble purple formazan crystals. DMSO was added to lyse cells, the contents of the wells were homogenized and the absorbance measured at 550 nm. Cell number in the untreated control was normalized as 100%, and viable cell number for all treatments was expressed as percentage of control. The cytotoxic effects of (S)-Penicillamine-arsenoxide were assayed by flow cytometry with propidium iodide. BAE cells were seeded at a density of 5×10^4 cells per well into 12-well plates, allowed to adhere overnight, then treated for 48 h with GSAO. […] The combined cells were pelleted, resuspended in 0.5 mL serum-free medium containing 1 μg·mL^−1 propidium iodide (Molecular Probes, Eugene, Oreg.) and analysed by flow cytometry.
BAE cells were seeded at a density of 1.5×10^6 cells in Petri dishes and allowed to adhere overnight. Cells were incubated with 50 μM (S)-Penicillamine-arsenoxide at discrete times for up to 2 h at 37° C. and then washed three times with ice-cold PBS. The washed cells were lysed in 1 mL of 70% w/w nitric acid. […] Samples were diluted 10-fold and analysed for arsenic atoms using an Elan 6100 Inductively Coupled Plasma Spectrometer (Perkin Elmer Sciex Instruments, Shelton, Conn.).

[2] = tested on: LLC cells (lung carcinoma); assay: LLC cell proliferation assay (MTT, 72 h); format: cell-based, human; conditions: mouse Lewis lung carcinoma, read-out: IC50 for proliferation arrest
Method: as §1, §2

[3] = tested on: PANC-1 cells (pancreatic carcinoma); assay: PANC-1 cell proliferation assay (MTT, 72 h); format: cell-based; conditions: PANC-1, human pancreatic carcinoma; read-out: IC50 for proliferation arrest
Method: as §1, §2

[4] = tested on: MDCKII cells over-expressing MRP2; conditions: MD/MRP2; 96 h; relative to IC50 of non-transfected parental cells
Method: (§3) Transfectants of the Madin-Darby canine kidney II (MDCKII) polarised epithelial cell line, over-expressing multidrug resistance-associated proteins (MRP) 1, 2 or 3, have been described (Evers et al., 2000; Kool et al., 1999), as have the MEF/MDR1 clone H4 over-expressing human MDR1 or BCRP (Dilda et al., 2005b). Cells were grown and maintained as adherent monolayers in DMEM containing 10% calf serum (Cosmic™, Hyclone, Tauranga, New Zealand), 100 μg·mL^−1 penicillin and 60 μg·mL^−1 streptomycin. Cytotoxicity assays were performed as described previously (Allen et al., 1999).
(§4) Mammalian cells over-expressing MRP1, 2, 3 or 6, or MDR1 or BCRP were tested for resistance to (S)-Penicillamine-arsenoxide. MRP1, MRP2 or MRP3 was over-expressed in the canine kidney epithelial MDCKII cell line, while MRP6, MDR1 or BCRP was over-expressed in the murine embryo fibroblast MEF3.8 line. Cells were exposed to the indicated concentrations of (S)-Penicillamine-arsenoxide for 96 h and the number of viable cells measured and expressed relative to the number of untreated cells. Resistance factor is calculated relative to the (S)-Penicillamine arsenoxide IC50 for proliferation arrest of non-transfected parental cells.

[5] = tested on: MEF3.8 cells over-expressing MRP6; conditions: MEF/MRP6; 96 h; relative to IC50 of non-transfected parental cells
Method: as §3, §4

[6] = tested on: MEF3.8 cells over-expressing BCRP; conditions: MEF/BCRP; 96 h; relative to IC50 of non-transfected parental cells
Method: as §3, §4

[7] = tested on: MEF3.8 cells over-expressing MDR1; conditions: MEF/MDR1; 96 h; relative to IC50 of non-transfected parental cells
Method: as §3, §4

BAE cells = assay: BAE cell proliferation assay (MTT, 72 h); format: cell-based, bovine
Method: as §1, §2

[8] = tested on: MCF-7 cells (mammary carcinoma); assay: MCF-7 cell proliferation assay (MTT, 72 h); format: cell-based; conditions: MCF-7, human mammary carcinoma; read-out: IC50 for proliferation arrest
Method: as §1, §2

[9] = tested on: BxPC-3 cells (pancreatic carcinoma); assay: BxPC-3 cell proliferation assay (MTT, 72 h); format: cell-based; conditions: BxPC-3, human pancreatic carcinoma; read-out: IC50 for proliferation arrest
Method: as §1, §2

[10] = tested on: organic anion transporting polypeptide (OATP); assay: OATP studies with inhibitor DIDS in BAE cells; format: cell-based, bovine
Method: 750,000 BAE cells were seeded in 6 well plates containing DMEM with 10% fetal calf serum and allowed to adhere overnight. Cells were pretreated or not with 500 μM 4,4′-diisothiocyanostilbene-2,2′-disulfonic acid (DIDS) for 30 min and then incubated with 20 μM (S)-Penicillamine arsenoxide for 2 h at 37° C. and 5% CO2. Cells were then washed twice with ice-cold PBS and lysed with 70% nitric acid. Cellular arsenic levels were determined by ICPMS. 5000 BAE cells were seeded in 96 well plates containing DMEM with 10% fetal calf serum and allowed to adhere overnight. Cells were pretreated or not with 300 μM DIDS for […] and then incubated with 1.5 μM (S)-Penicillamine arsenoxide for 24 h at 37° C. and 5% CO2. Cell viability was determined using MTT.

SMILES: CC(C)(SCC(=O)Nc1ccc([As](O)O)cc1)[C@@H](N)C(=O)O [(S)-Penicillamine-arsenoxide, 4-(N—(S-penicillaminylacetyl)amino)phenylarsinous acid]
- pIC50 [1]: 5.22
- substrate status for MRP1/2 (MRP1/2): substrate for MRP1/2
- anti-proliferative effect in presence of MRP1/2 inhibitors (MRP1/2; 0.3 μM compound, 4H10 2 μM or MK-571 15 μM, 72 h): more potent anti-proliferative effect
- accumulation in presence of MRP1/2 inhibitors 4H10 and MK-571 (MRP1/2; 50 μM compound, 4H10 5 μM or MK-571 25 μM): More (S)-Penicillamine-arsenoxide accumulated in BAE cells
- pIC50 [2]: 5.30
- pIC50 [3]: 5.19
- Resistance Factor [4]: 4.6
- Resistance Factor [5]: 1.3
- Resistance Factor [6]: 1.1
- Resistance Factor [7]: 1.2
- times more effective than GSAO at blocking proliferation and reducing the viability of endothelial cells (BAE cells): ~25 times
- pIC50 (BAE cells; 72 h, read-out: IC50 for proliferation arrest): 6.40 and 6.37
- pIC50 [8]: 5.05
- pIC50 [9]: 4.89
- effect of DIDS on anti-proliferative activity ([10]; 300 μM DIDS, then 1.5 μM compound 24 h): reduces its anti-proliferative activity
- effect of DIDS on uptake ([10]; 500 μM DIDS 30 min, then 20 μM compound 2 h): inhibits (S)-Penicillamine arsenoxide uptake
